Molecular target: S1P receptor 2 (S1P2/EDG-5) (Homo sapiens, UniProt O95136)
Assay: Fura2 intracellular Ca2+ assay
Assay type: cell-based

S1P receptor 2 (S1P2/EDG-5), sequence (O95136 whole entry): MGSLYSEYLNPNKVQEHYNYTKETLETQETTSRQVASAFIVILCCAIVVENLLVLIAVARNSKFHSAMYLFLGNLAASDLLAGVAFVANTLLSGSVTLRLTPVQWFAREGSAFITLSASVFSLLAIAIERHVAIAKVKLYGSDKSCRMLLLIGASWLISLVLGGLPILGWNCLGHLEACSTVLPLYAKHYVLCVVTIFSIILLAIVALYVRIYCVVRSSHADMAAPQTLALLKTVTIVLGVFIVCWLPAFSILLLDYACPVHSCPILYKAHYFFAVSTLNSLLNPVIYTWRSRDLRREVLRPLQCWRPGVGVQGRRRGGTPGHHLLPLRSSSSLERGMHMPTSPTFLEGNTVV

Compound	IC50
ONO-5430514	5.7 nM
Cc1nn(C)c2nc(NNC(=O)Nc3c(Cl)cncc3Cl)cc(C(C)C)c12 [JTE-013]	5.3 nM

Reference: PMC8219539 (Journal of Atherosclerosis and Thrombosis, 2020)
